Measured values reported in patent publication US12251401B2, “Synthesis and antimicrobial uses of dinuclear silver(I) pyrazolates” (The Florida International University Board of Trustees, priority 2018, dated 2025).
Like-named read-outs stand apart in the source and are kept apart here.

How the values were obtained:
[1] = test system: Pseudomonas aeruginosa; assay: Skin and soft tissue infection (SSTI) two-layer agar model, zone of inhibition around KBr pellets; format: cell-based; details: KBr pellet with 2% (w/w) of substance on P. aeruginosa lawn, incubation at 37° C. for 18 h
Text: A skin and soft tissue infection (SSTI) model was used to study the antibacterial properties of three silver complexes. In this model, two layers of agar were employed to mimic a tissue infection with a nutrient rich bottom and the soft-top layer to allow for even dispersal of bacteria. The top soft agar acts like the skin and as bacteria grow they migrate towards the bottom nutrient layer mimicking an infected tissue. Frozen samples of Pseudomonas Aeruginosa were thawed and streaked on an agar plate. A single colony was selected and grown in Luria Broth (LB) for 18 h. The suspension was diluted with LB until an A600 (absorbance) of 0.5 was reached. The soft agar bacterial suspension was prepared by adding 120 mL of the above solution to 100 mL 0.8% (w/v) agar with 1% NaCl, which had been autoclaved and cooled to 45° C. before addition. The suspension was gently vortexed and 8 mL was spread evenly on the surface of 20 mL of a 1.5% (w/v) TSB agar plate (100×15 mm^2) and allowed to solidify. The plates were incubated for 2 h at 37° C. in order for the bacteria to reach log phase before bactericidal experiments were performed.
Blank KBr pellets (typically utilized for recording IR spectra) and KBr pellets with 2% (w/w) of three complexes (1), (2) and (5), each weighing between 34 and 46 mg, were evenly mulled and pressed with a two-ton load. Three blanks, containing PTA, or 4-Cl-pzH, or PPh3, were also prepared in the same manner. Pellets were carefully placed on the plates (see Example 8) after 2 h of incubation at 37° C.
A previously developed soft tissue infection (SSTI) model has been utilized for the present antibacterial studies. […] The gradient causes the bacteria to slowly travel from the slender top layer to the nutrient-rich bottom layer, much alike what would occur in a typical skin infection.

[2] = test system: P. aeruginosa; assay: Bacterial eradication assessed using the optical density method; format: cell-based, Pseudomonas aeruginosa
Text: FIGS. 51A-51B show the results of bacterial eradication by compounds of complex (5) and complex (29) assessed using the optical density method.
(§1) Both complex (5) and complex (29) were comparatively tested against P. aeruginosa.

[3] = Solubility (qualitative); format: physicochemical
Text: All complexes provided herein were neutral and soluble in variety of organic solvents.
as §1

| Compound | zone of bacterial clearing (zone of inhibition) [1] | further results |
| --- | --- | --- |
| Clc1cn[nH]c1 [4-Cl-pzH, 4-Cl-pyrazole] | much smaller but still visible zones of bacterial growth inhibition |  |
| c1ccc(P(c2ccccc2)c2ccccc2)cc1 [PPh3, triphenylphosphine] | no zone of inhibition |  |
| disilver(I)-bis(μ-4-Cl-pyrazolido)(PPh3)3 [complex (2)] | minimal bacterial clearance |  |
| O=[N+]([O-])[O-].[Ag+] [AgNO3, silver nitrate] | Visible circular zones of bacterial clearing |  |
| disilver(I)-bis(μ-4-Cl-pyrazolido)tetrakis(PTA) [complex (5)] | Visible circular zones of bacterial clearing | IC50, eradication of the bacterial culture ([2]; P. aeruginosa culture, optical density, increasing concentrations): > 2000 µg/mL; solubility in aqueous media ([3]; aqueous media): highly soluble; solubility in water and several bacterial growth media ([3]; water and several bacterial growth media): readily soluble |
| C1N2CN3CN1CP(C2)C3 [PTA, 1,3,5-triazaphosphaadamantane] | much smaller but still visible zones of bacterial growth inhibition |  |
| disilver(I)-bis(μ-4-Cl-pyrazolido)tetrakis(PPh3) [complex (1)] | minimal bacterial clearance |  |
| disilver(I)-bis(μ-3-methyl-pyrazolido)bis(PTA) [complex (29)] |  | eradication of the bacterial culture ([2]; P. aeruginosa, lowest concentration tested, 31.25 μg/mL): ~90%; solubility in water and several bacterial growth media [3]: readily soluble |
